From article PMC9410537, “Discovery of Ircinianin Lactones B and C—Two New Cyclic Sesterterpenes from the Marine Sponge Ircinia wistarii” (Marine Drugs, 2022)
Read-outs that look alike come from different tables or passages of the source.

What was measured:
[1] = system: Human Cytomegalovirus (HCMV); assay type: cell-based; conditions: up to the highest concentration tested (10 µM), HFF cells
[2] = Observed stability of the isolated compounds; assay type: physicochemical; conditions: rapid decomposition after the NMR measurements
Source text: The shift values of the terminal heterocycle were in very good agreement with literature data from similar natural products, bearing a γ-hydroxy-γ-butenolide moiety. Analogous to compound 7, the Δ^8,10 double bond of 8 was defined as E (C-9: δC 16.2 and NOESY cross correlations depicted in Figure 4). Likewise, based on the same observed diagnostic NOE crosspeaks for the indene system (Figure S43B) and for biogenetic reasons, we propose that 8 is 11R*, 15R*, 18S*, 20R*, 21S* configured. […] Therefore, we integrated computational methods and aimed for quantum-mechanical predictions of ^1H and ^13C NMR chemical shifts of a 1S- and a 1R-configured version of 8.
All tests were performed with 1 as a pre-screening for the scaffold’s activity within their respective assays. Based on the results from the pre-screening, the biological evaluation of the structural congeners was planned. Unfortunately, an instability phenomenon affected the purity of the isolated compounds. Due to the limited amounts of the isolated compounds, repurification would not have yielded the required sample quantity for the assays. This reality precluded biological evaluation of the structural congeners 3–8.

Wolbachia endosymbionts = experiment: Anthelmintic assay, depletion of Wolbachia endosymbionts from cultured adult female worms; assay type: cell-based, Litomosoides sigmodontis; conditions: 0.1, 1 and 10 µM, two weeks of in vitro culture; not statistically significant
Method: To investigate the activity against filarial nematodes, adult female worms of the rodent filarial nematode Litomosoides sigmodontis were cultured in vitro with a 0.1, 1 and 10 µM concentration of 1. Motility of adult filariae as well as reduction of Wolbachia endosymbionts were assessed. […] L. sigmodontis adult female worms were isolated from chronically infected cotton rats (UKB). Three L. sigmodontis female adult worms per condition were cultured in supplemented Minimal Essential Medium (MEM) on a LLCMK2 cell layer, as previously described. […] Candidate 1 was tested at concentrations of 0.1, 1 and 10 µM. Filarial viability was assessed by determining the mean worm motility scores on a scale of 0 (immotile) to 2 (maximum motility) before drug addition and at 1 h, 1 day, 2 day, 4 day, 6 day, 8 day, 10 day, 12 day and 14 day post drug addition. The drug-containing media was renewed every other day. Depletion of Wolbachia endosymbionts from female adult worms was analyzed after two weeks of in vitro culture and determined as previously described using primers for the single copy gene Wolbachia ftsZ.

[3] = system: set of clinically relevant bacteria (ESKAPE panel and one mycobacterial strain); experiment: Antibacterial assay (MIC), whole strain panel; assay type: cell-based; conditions: highest concentration tested
Method: (§1) The minimal inhibitory concentration (MIC) was determined as described previously in cation-adjusted Mueller-Hinton medium according to the standards and guidelines of the Clinical and Laboratory Standards Institute. […] After an overnight incubation at 37 °C, the MIC was read as the lowest compound concentration preventing visible bacterial growth. The strain panel included representative species of nosocomial pathogens, known as “[…]” bacteria. Specifically, the following strains were used: Enterococcus faecium BM 4147-1, Staphylococcus aureus ATCC 29213, Klebsiella pneumoniae ATCC 12657, Acinetobacter baumannii 09987, Pseudomonas aeruginosa ATCC 27853, and Enterobacter aerogenes ATCC 13048. Bacillus subtilis 168, Escherichia coli ATCC 25922, and Mycobacterium smegmatis mc^2 155 ATCC 700084 were used as further reference strains.

[4] = system: panel comprising 60 human cancer cell lines; experiment: One dose NCI-60 cell-line cytotoxicity screen; assay type: cell-based; conditions: single high dose
Source text: One dose NCI-60 panel: 1 was selected for the anticancer drug screening service as a part of the Developmental Therapeutics Program at the National Cancer Institute (NCI). In vitro tumor growth inhibitory effects were explored using a standard protocol with a single high dose test against a panel comprising 60 human cancer cell lines. It is noteworthy to mention that we had to remove the results of the NCI-H23 cell line, since NCI informed us that its cell line’s identity was not authenticated during the time frame in which the screening of 1 was conducted.

[5] = system: Mytilus galloprovincialis larvae; experiment: Marine antifouling assay, larval settlement and metamorphosis; conditions: up to the highest concentration tested (100 µg/mL), 5 days
Method: (§2) Antifouling activity was assessed via inhibition of settlement and metamorphosis of larvae of the Pacific transparent sea squirt (Ciona savignyi) and the blue mussel (Mytilus galloprovincialis). Methods followed those published by Grant et al.. Adults of both species were collected from coastal populations in the Nelson region of New Zealand, held in a recirculating seawater system (18 ± 1 °C, 33 ± 1 PSU) and fed bulk-cultured Isochorysis galbana until ready to spawn. Larval spawning and rearing procedures followed previously described methods for C. savignyi and M. gallorprovincialis. Competent larvae were diluted in artificial seawater to yield 3 ± 1 larvae/mL. Aliquots of these larval suspensions were added to 12-well tissue culture plates (Corning Co-Star) containing serial dilutions of 1 ranging from 0.1–100 µg/mL. Controls were included, and three replicates were performed in all cases. After 5 days of incubation at 18 ± 1 °C, the number of successfully settled and metamorphosed individuals were counted in each well. Sigmoidal dose-response relationships were explored using R Statistical Software to determine whether inhibition had occurred relative to the controls.

Ciona savignyi larvae = experiment: as above; conditions: up to the highest concentration tested (100 µg/mL), 5 days
Method: as §2

M. smegmatis mc2 155 = experiment: Antibacterial assay (MIC); assay type: cell-based, Mycobacterium smegmatis; conditions: Mycolicibacterium smegmatis, MC2155
Method: as §1

[6] = system: HeLa human cervical carcinoma cell line; experiment: In vitro cytotoxicity assay with HeLa cells (resazurin); assay type: cell-based
Method: In vitro cytotoxicity assay with HeLa cells: The cytotoxicity test against the HeLa human cervical carcinoma cell line was performed as described previously in RPMI cell culture medium supplemented with 10% fetal bovine serum using the 7-hydroxy-3H-phenoxazin-3-one-10-oxide (resazurin) assay. Briefly, a 2-fold serial dilution of the test compounds was prepared in duplicates in a microtiter plate and seeded with trypsinized HeLa cells to a final cell concentration of 1 × 10^4 cells per well. After 24 h of incubation at 37 °C, with 5% CO2 and 95% relative humidity, resazurin was added at a final concentration of 200 μM, and cells were again incubated overnight. Cell viability was assessed by determining the reduction of resazurin to the fluorescent resorufin. Fluorescence was measured in a TECAN Infinite M200 reader at an excitation wavelength of 560 nm and an emission wavelength of 600 nm in relation to an untreated control.

[7] = system: L-6 cells (rat skeletal myoblasts); experiment: In vitro cytotoxicity assay with L-6 cells (resazurin); assay type: cell-based; conditions: L6, L-6 cells, read-out: IC50 L6
Method: In vitro cytotoxicity assay with L-6 cells. Assays were performed in 96-well microtiter plates, each well containing 100 μL of RPMI 1640 medium supplemented with 1% L-glutamine (200 mM) and 10% fetal bovine serum, and 4000 L-6 cells (a primary cell line derived from rat skeletal myoblasts). Serial drug dilutions ranged from 100 to 0.002 μg/mL. After 70 h of incubation, the plates were inspected under an inverted microscope to assure growth of the controls and sterile conditions. 10 μL of resazurin was then added to each well and the plates were incubated for another 2 h. […] Podophyllotoxin (Sigma P4405) was used as control (IC50 0.011 ± 0.005 μM).

CC1=C[C@@H](/C=C(\C)CCCc2ccoc2)[C@]2(OC(=O)C(C)=C2O)[C@@H]2[C@@H](C)CC[C@@H]12 [compound 1, Ircinianin]
Inhibition of HCMV infection [1]: no inhibition
Stability of isolated compound [2]: unstable
Wolbachia reduction in comparison to media controls (Wolbachia endosymbionts): < 32%
MIC [3]: > 32 µg/mL
Activity in NCI 60 cell-line cytotoxicity screen [4]: no activity
Inhibitory effect on larval settlement and metamorphosis [5]: inactive
Inhibitory effect on larval settlement and metamorphosis (Ciona savignyi larvae): inactive
MIC (M. smegmatis mc2 155): > 32 µg/mL
IC50 [6]: > 64 µg/mL
IC50 ([7]; 70 h incubation): 150 µM
IC50 ([7]; single cell line assays (Table S7)): 59.5 µg/mL
